{"source": "patent US6911306B1", "about": "“TMS1 compositions and methods of use” (Emory University, priority 1999, dated 2005)", "key": {"TMS1 CpG island": {"tested_on": "TMS1 CpG island", "assay": "Methylation-specific PCR of the TMS1 CpG island after demethylating agent treatment", "type": "cell-based, human", "settings": "0.5 μM for 3 days; ZR75-1, Hs578t and MDA MB231 cells", "method": "Bisulfite modification and methylation-specific PCR were performed as previously described. (Herman, J. G., et al., Proc. Natl. Acad. Sci. U.S.A. 93:9821-9826, 1996) Briefly, 2 μg genomic DNA was denatured by incubation at 37° C. in 0.2N NaOH for 10 min. then treated with 3M sodium metabisulfite and 0.5 M hydroquinone at 50° C. for 16 h. DNA was desalted using Wizard DNA Clean-Ups (Promega). Modification was completed by the addition of NaOH to a final concentration of 0.3M and DNA was recovered by ethanol precipitation. Approximately 50 ng bisulfite-modified DNA was amplified by PCR with the following reaction conditions: 67 mM Tris-HCl, pH 8.8, 16.6 mM NH4SO4, 6.7 μM EDTA, 10 mM β-mercaptoethanol, 6.7 mM MgCl2, 1 μM each primer in a 25 μl reaction. Hot start PCR was performed using an initial 5 minute incubation at 95° C. followed by the addition of 0.5 U Taq polymerase (Life Technologies) and 35 cycles of PCR (95° C., 30 s; 58° C., 30 s; 72° C., 30 s). […]\n(§1) If loss of TMS1 expression is directly related to methylation of the CpG island, then expression of TMS1 should be restored following treatment with a demethylating agent. […] Methylation of the TMS1 CpG island was analyzed by methylation specific PCR and expression of TMS1 was analyzed by RT-PCR with β-actin controls. […]"}, "TMS1 transcript": {"tested_on": "TMS1 transcript", "assay": "RT-PCR analysis of TMS1 expression after demethylating agent treatment", "type": "cell-based, human", "settings": "0.5 μM for 3 days; ZR75-1, Hs578t and MDA MB231 cells", "method": "Six μg total RNA was pretreated with DNAse I (Life Technologies) and reverse transcribed using random hexamer primers and MMLV-reverse transcriptase according to the manufacturers instructions (Life Technologies). One/30th of the reverse transcriptase reaction equivalent to 200 ng starting RNA was used directly in a PCR reaction. The PCR reaction conditions were: 67 mM Tris-HCl, pH 8.8, 16.6 mM NH4SO4, 6.7 μM EDTA, 10 mM β-mercaptoethanol, 4.7 mM MgCl2, 10% DMSO, 400 nM each primer in a 25 μl reaction. Hot start PCR was performed using an initial 5 minute incubation at 95° C. followed by the addition of 0.5 U Taq polymerase and 35 cycles of PCR (95° C., 30 s; 50-55° C., 60 s; 72° C., 60 s). Primers used for analysis of TMS1 were TGGGCCTGCAGGAGATG-3′ (SEQ ID NO:13) and 5′-ATTTGGTGGGATTGCCAG-3′ (SEQ ID NO:9) with an annealing temperature of 50° C. Primers used for the analysis for β-actin were 5′-[…]-3′ (SEQ ID NO:14) and 5′-[…]-3′ (SEQ ID NO:15) with an annealing temperature of 55° C. […]\nas §1"}, "MTMS22 cells [1]": {"tested_on": "MTMS22 cells", "assay": "MTMS22 cell proliferation with ecdysone-inducible TMS1 expression", "type": "cell-based, human", "method": "The Ecdysone-Inducible Mammalian Expression System (Invitrogen, Carlsbad, Calif.) was used to create clones of 293 cells that inducibly express mycTMS1. The mycTMS1 cDNA was cloned into the HindIII/XhoI sites of the pIND expression vector (pIND-mycTMS1). EcR-293 cells (Invitrogen, Carlsbad, Calif.) containing the pVgRXR vector were transfected with pIND-mycTMS1 or pIND using Lipofectamine Reagent (Life Technologies, Grand Island, N.Y.). Cells were maintained in selection medium containing 600 μg/ml G418 for 3 weeks to isolate stably transfected colonies. Clonal populations transfected with pIND-mycTMS1 were then tested for inducible expression by western blot analysis after addition of 5 μM pon A.\nHuman embryonic kidney 293 cells and EcR-293 derivatives (MTMS22 and PIND1) were cultured in DMEM (Life Technologies, Inc. Grand Island, N.Y.) supplemented with 10% fetal bovine serum. MTMS22 and PIND1 cells were maintained in the presence of 400 μg/ml zeocin and 600 μg/ml G418. Transfections of 293 cells were carried out in 24-well dishes with 1×10^5 cells and 0.5 μg total DNA per well using the calcium phosphate method. As a transfection marker, a βgal expression vector (β-gal CMV) was included at a 1:4 ratio with the indicated cDNA constructs. […]"}, "MTMS22 cells [2]": {"tested_on": "MTMS22 cells", "assay": "DNA fragmentation in MTMS22 cells", "type": "cell-based, human", "method": "Where indicated, MTMS22 cells were treated with 5 μM pon A (Invitrogen) or 40 μM Z-VAD-fmk (Enzyme System Products, Livermore, Calif.). DNA was collected from 2×10^6 cells as previously described. (Burow, M. E., et al. Cancer Research. 58: 4940-4946, 1998) 5 μg of DNA from each sample was visualized by separation on a 2% agarose gel containing ethidium bromide."}, "pIND1 control cells": {"tested_on": "pIND1 control cells", "assay": "Growth of pIND1 control cells", "type": "cell-based, human", "settings": "empty-vector control cells", "method": "(§2) Human embryonic kidney 293 cells and EcR-293 derivatives (MTMS22 and PIND1) were cultured in DMEM (Life Technologies, Inc. Grand Island, N.Y.) supplemented with 10% fetal bovine serum. MTMS22 and PIND1 cells were maintained in the presence of 400 μg/ml zeocin and 600 μg/ml G418. Transfections of 293 cells were carried out in 24-well dishes with 1×10^5 cells and 0.5 μg total DNA per well using the calcium phosphate method. As a transfection marker, a βgal expression vector (β-gal CMV) was included at a 1:4 ratio with the indicated cDNA constructs. In co-transfections with DN-caspase-8 or DN-caspase-9, 0.2 μg of pcDNA-TMS1 was transfected with […] of pcDNA3.1 or DN-caspase-8 or -9 along with 0.1 μg of β-gal CMV as a transfection control.\nAn ecdysone-regulated expression system was used to create a 293 cell line that inducibly expresses TMS1. […] In addition, a clonal population of cells stably transfected with the empty expression vector was isolated as a control (PIND1). Upon addition of pon A to the MTMS22 cells, mycTMS1 was detectable by western blotting as early as 6 hours after treatment and continued to accumulate in the cells over 48 hours (FIG. 6A). […] By 96 hours, pon A-treated cells were declining in number, confirming cell death. As a biochemical marker for apoptosis, MTMS22 cells were examined for DNA fragmentation in the presence or absence of TMS1 expression. […]"}, "293 cells": {"tested_on": "293 cells", "assay": "Fluorescence microscopy of TMS1 subcellular localization", "type": "cell-based, human", "settings": "cells expressing TMS1 in the presence of Z-VAD", "method": "Cells were fixed in 4% formaldehyde, permeabilized in 0.2% triton X-100 in PBS and blocked with 3% BSA/0.02% triton X-100 in PBS. Coverslips were incubated with myc antibody (9E10) (Santa Cruz Biotechnology, Santa Cruz, Calif.) at a 1:500 dilution, washed 4 times in PBS/0.02% triton X-100 and incubated with a secondary FITC antibody at a 1:2000 dilution. After 3 more washes, cells were stained with Hoechst 33258 dye to visualize nuclei, washed twice in PBS and mounted on slides. Cells were viewed at 400× or 1000× using the Olympus BX60 microscope. Digital images were captured using IP Lab Spectrum v.3.1 software (Scanalytics, Inc., Fairfax, Va.)."}, "[3]": {"tested_on": "293 human embryonic kidney cells", "assay": "Morphological apoptosis assay in transiently transfected 293 cells", "type": "cell-based", "settings": "48 h; for apoptosis on ectopic expression: transient transfection of 293 cells", "method": "293 human embryonic kidney cells were plated on glass coverslips in 24 well dishes at 1×10^5 cells per well, and were transfected with 0.4 μg of pcDNA3.1 or the TMS1 expression constructs plus 0.1 μg β-galactosidase expression vector (pCMVβgal, Clonetech) using the calcium phosphate precipitation method. Where indicated, 40 μM zVADfmk (Enzyme System Product, Livermore, Calif.) was included during the recovery period. Forty-eight hours after transfection, coverslips were fixed in 4% paraformaldehyde and stained for β-galactosidase activity, using X-gal, and for nuclear morphology, using Hoecsht […] dye. Cells were visualized by phase contrast microscopy. At least 200 β-galactosidase positive cells from randomly selected fields were counted from each transfection. Apoptotic cells were distinguished based on morphologic features typical of adherent cells undergoing apoptosis, including becoming condensed, rounded and detached from the growth surface as described. (McCarthy, J. V. et al., J.Biol.Chem. 273:16968-16975, 1998). Each transfection experiment was repeated three times.\nas §2\n48 h after transfection, 293 cells were fixed on coverslips and stained for β-gal activity. Nuclei were stained using Hoechst 33258 dye (Sigma, St. Louis, Mo.). […]"}, "NF-κB": {"tested_on": "NF-κB", "assay": "CAT assay for NF-κB activation", "type": "cell-based, human", "settings": "293 cells, NF-κB CAT reporter, increasing amounts of TMS1", "method": "293 cells plated at 60% confluence in 6 well dishes were transfected with 0.2 μg of the NF-κB CAT reporter construct (pJECAT2.6) and increasing amounts of pcDNA-mycTMS1 by the calcium phosphate method. 0.2 μg of β-gal CMV was included as a transfection control, and the total amount of DNA transfected was kept constant at 2 μg with pcDNA3.1. Cell lysates were collected 36 h after transfection in β-gal lysis buffer (Promega, Madison, Wis.) and assayed for β-gal activity using the β-Galactosidase Enzyme Assay System (Promega, Madison, Wis.) per manufacturer's instructions. CAT assays were performed basically as described. (Ausubel, F. M., et al. Curr. Prot. Mol. Biol., Vol. 2, pp. 9.7.5-9.7.6: John Wiley & Sons, Inc., 1997) In brief, cell lysates were incubated with [^14C]chloramphenicol and n-butyryl CoA. [^14C]-labeled acetylated chloramphenicol was then separated from the nonacetylated form by organic phase extraction, and radioactive counts were determined using a scintillation counter."}, "Hs578t cells": {"tested_on": "Hs578t cells", "assay": "Colony formation assay", "type": "cell-based, human", "settings": "stable expression, 14 days G418 selection, relative to vector control", "method": "Breast cancer cells, including Hs57 8t, (3×10^5) were seeded into six well dishes and transfected with 1 μg pcDNA3.1 or the TMS1 expression constructs using 5 μl Lipofectamine reagent (Life Technologies). Twenty-four hours after transfection, cells were diluted 1:100-1:500 and seeded into 100 mm dishes in medium containing 400 μg/ml G418. After 14 days of selection, stable G418-resistant colonies were fixed and stained with 50% methanol, 0.25% crystal violet, and counted. The total number of colonies recovered per transfection cells was extrapolated from counting at least 300 G418^r colonies per experiment. The number of colonies recovered from cells transfected with pcDNA3.1 in each experiment was considered to be 100%. Three independent transfection experiments were performed.\nGiven the proapoptotic function of TMS1, the consequences of TMS1 silencing were determined by re-introducing TMS1 into breast cancer cells lacking endogenous TMS1 expression. Colony forming ability of TMS1 negative breast cancer cells stably transfected with TMS1 expression constructs was analyzed in the following manner. Hs578t cells were transfected with the pcDNA3.1 vector or the indicated TMS1 expression construct. Twenty-four hours after transfection, cells were plated at limiting dilution in G418 selection medium. […]"}, "[4]": {"settings": "MTMS22 cells with pon A, 40 μM Z-VAD"}}, "note": "Where a SMILES comes first, the peptide text is derived from it. The star is where a group is joined. Cbz = O=C(OCc1ccccc1)*; CH2F = FC*"}
{"compound": "Nc1ncn([C@H]2C[C@H](O)[C@@H](CO)O2)c(=O)n1", "note": "[5-aza-2′-deoxycytidine]", "values": [{"measurement": "methylation of the TMS1 CpG island", "setting": "TMS1 CpG island", "result": "partial demethylation"}, {"measurement": "expression of TMS1 transcript", "setting": "TMS1 transcript", "result": "re-expression-of TMS1 transcript"}]}
{"compound": "COC(=O)C[C@H](NC(=O)[C@H](C)NC(=O)[C@@H](NC(=O)OCc1ccccc1)C(C)C)C(=O)CF", "note": "[Z-VAD, Z-VAD-fmk] (Cbz-Val-Ala-Asp(OMe)-CH2F)", "values": [{"measurement": "effect on TMS1-induced cell death", "setting": "MTMS22 cells [1]; [4]", "result": "blocked"}, {"measurement": "effect on TMS1-induced DNA fragmentation", "setting": "MTMS22 cells [2]; [4]", "result": "blocked"}, {"measurement": "effect on growth of pIND1 control cells", "setting": "pIND1 control cells", "result": "Neither pon A or Z-VAD had any effect"}, {"measurement": "effect on formation of TMS1-containing spherical aggregates", "setting": "293 cells", "result": "no effect"}]}
{"compound": "CC(C)CC[C@@H](O)[C@](C)(O)[C@H]1CC[C@@]2(O)C3=CC(=O)[C@@H]4C[C@@H](O)[C@@H](O)C[C@]4(C)[C@H]3CC[C@]12C", "note": "[pon A]", "values": [{"measurement": "effect on growth of pIND1 control cells", "setting": "pIND1 control cells", "result": "Neither pon A or Z-VAD had any effect"}]}
{"compound": "TMS1: human TMS1 polypeptide (SEQ ID NO:3) expressed from the TMS1 cDNA in pcDNA3.1", "values": [{"measurement": "cell growth on induced TMS1 expression", "setting": "MTMS22 cells [1]; MTMS22 cells, pon A, by 48 hours after induction", "result": "cell growth was significantly inhibited"}, {"measurement": "DNA laddering on induced TMS1 expression", "setting": "MTMS22 cells [2]; MTMS22 cells, pon A, as early as 16 hours, most evident at 48 hours", "result": "DNA laddering was observed"}, {"measurement": "increase in cell death", "setting": "[3]; 293 cells, ectopic expression", "result": 6, "unit": "fold"}, {"measurement": "apoptosis on ectopic expression", "setting": "[3]", "result": "induced apoptosis"}, {"measurement": "NF-κB-dependent transcriptional activation", "setting": "NF-κB", "result": "no effect"}, {"measurement": "inhibition of colony formation", "setting": "Hs578t cells", "result": "about 70%"}]}
{"compound": "mycTMS1: TMS1 with a myc-epitope tag fused to amino acid 2", "values": [{"measurement": "apoptosis on ectopic expression", "setting": "[3]", "result": "induced apoptosis"}]}
